Reference: patent EP0127864A2, “D-homo-4,9,16-estratrienes, their preparation and pharmaceutical compositions containing them” (SCHERING AKTIENGESELLSCHAFT, priority 1983, dated 1984)

System: Ratte
Experiment: Abortive effect in pregnant rats (measure of antigestagenic activity)
Format: in vivo
Settings: for n Abort / n Gesamt: subcutan, d5 p.c. to d7 p.c., uteri examined d9 p.c., absence of implants counted as abortion
Description: Zur Kennzeichnung der antigestagenen Wirkung wurde die abortive Wirkung bestimmt.
Die Versuche wurden an weiblichen Ratten im Gewicht von ca. 200 g durchgeführt. Nach erfolgter Anpaarung wurde der Schwangerschaftsbeginn durch Nachweis von Spermien in Vaginalabstrichen gesichert. Der Tag des Spermiennachweises gilt als Tag 1 der Gravidität (= dl p.c.).
Die Behandlung der Tiere mit der jeweils zu testenden Substanz bzw. dem Lösungsmittel erfolgte nach der Nidation der Blastocysten von d5 p.c. bis d7 p.c.
An d9 p.c. wurden die Tiere getötet und die Uteri auf Implantate und Resorptionsstellen hin untersucht. Von allen Uteri wurden Fotos angefertigt. Das Fehlen von Implantaten wurde als Abort gewertet.
Die Testsubstanzen wurden in einem Benzylbenzoat-Rizinusöl-Gemisch (Verhältnis 1 + 9) gelöst. Das Vehikelvolumen pro Einzeldosis betrug 0,2 ml. Die Behandlung erfolgte subcutan.

| Structure (SMILES) | Wirksamkeit (Abortauslösung) (Dosierung 1,0 mg, result in words) | n Abort / n Gesamt (Dosis 0.3 mg/Tier/Tag) | n Abort / n Gesamt (Dosis 1.0 mg/Tier/Tag) | n Abort / n Gesamt (Dosis 3.0 mg/Tier/Tag) | n Abort / n Gesamt (Dosis 10.0 mg/Tier/Tag) | Aborte (Dosierung 1,0 mg) [%] |
| --- | --- | --- | --- | --- | --- | --- |
| CC#C[C@]1(O)C=CC[C@H]2[C@@H]3CCC4=CC(=O)CCC4=C3[C@@H](c3ccc(N(C)C)cc3)C[C@@]21C [A, 11ß-(4-Dimethylaminophenyl)-17aß-hydroxy-17aα-(1-propinyl)-U-homo-4,9,16-estratrien-3-on] | voll wirksam | 2/4 | 4/4 | 4/4 | 4/4 | – |
| CC#C[C@]1(O)CC[C@H]2[C@@H]3CCC4=CC(=O)CCC4=C3[C@@H](c3ccc(N(C)C)cc3)C[C@@]21C [B, 11ß-(4-Dimethylaminophenyl)-17ß-hydroxy-17a-(propin-1-yl)-4,9(10)-estradien-3-on, reference compound] | – | – | 2/4 | 4/4 | 4/4 | 50 |
